From publication PMC10375191, “Transformable Neuropeptide Prodrug with Tumor Microenvironment Responsiveness for Tumor Growth and Metastasis Inhibition of Triple‐Negative Breast Cancer” (Advanced Science, 2023)
Starred links: 1 amine or outer side, 2 acyl side, 3 side chain; linkers in the order of their positions; H or OH if unused. Residues, ends and D or L forms follow the SMILES beside them. *: point of attachment. Doxorubicin(3'-N) = COc1cccc2c1C(=O)c1c(O)c3c(c(O)c1C2=O)C[C@@](O)(C(=O)CO)C[C@@H]3O[C@H]1C[C@H](N*)[C@H](O)[C@H](C)O1; Suc = O=C(CCC(=O)[*:2])[*:1]

Experiments:
[1] = Pharmacokinetics in plasma; format: in vivo, mouse; settings: ICR female mice, 10 mg kg^−1 DOX content i.v.
Method: The drug contents were quantified by HPLC (1260 Infinity II, Agilent, USA) as described in the methods of characterization in Supporting Information and the pharmacokinetic parameters were analyzed using the Phoenix WinNonlin 8.3.5 software.

MCF‐7 cells = test: CCK-8 cell viability assay, MCF-7; format: cell-based, human; settings: MCF-7, 24 h
Method: (§1) MDA‐MB‐231 cells were incubated in 96‐well plates for 24 h (1 × 10^4 cells per well). […] At the appointed time, 10 µL CCK‐8 solution was dropped into each well and further co‐incubated with treated cells for 2 h. The absorbance values at 450 nm were measured by an automated plate reader (iMark (168‐1130), Biorad, USA). The IC50 values were obtained from Microsoft Excel's FORECAST formula.
breast cancer cell line MCF-7 after 24 h incubation. Data are presented as means ±
standard deviations (n = 3).
(1 picture or pasted object on this page, not shown here)

MDA‐MB‐231 cells [2] = test: Wound healing experiment; format: cell-based, human
Method: Wound healing culture inserts were tightly stuck on 12‐well plates and 2 × 10^4 MDA‐MB‐231 cells were seeded in the gap of the culture inserts to incubate for 24 h. […] After incubation for 12 and 24 h, the wound healing area was photographed by a microscope (DFC 450C, Leica, Germany).

MDA‐MB‐231 cells [3] = test: CCK-8 cell viability assay, MDA-MB-231; format: cell-based, human; settings: MDA-MB-231, 36 and 48 h versus 24 h
Method: as §1

[4] = target: T1, matrix metalloproteinase‐2 (MMP‐2) (Homo sapiens, UniProt P08253); test: MMPs-responsive cleavage of DOX-P18 by MMP-2 (HPLC, MS, fluorescence); format: in vitro ADME; settings: 1 mg mL^−1 DOX-P18 with 1 µg mL^−1 MMP-2, 37 °C; HPLC at 6, 12, 24, 72 h, monitored at 500 nm; product DOX-P3 identified by MS
T1 construct: purchased Novoprotein Scientific Inc. (Shanghai, China)
T1 sequence (P08253 110-660): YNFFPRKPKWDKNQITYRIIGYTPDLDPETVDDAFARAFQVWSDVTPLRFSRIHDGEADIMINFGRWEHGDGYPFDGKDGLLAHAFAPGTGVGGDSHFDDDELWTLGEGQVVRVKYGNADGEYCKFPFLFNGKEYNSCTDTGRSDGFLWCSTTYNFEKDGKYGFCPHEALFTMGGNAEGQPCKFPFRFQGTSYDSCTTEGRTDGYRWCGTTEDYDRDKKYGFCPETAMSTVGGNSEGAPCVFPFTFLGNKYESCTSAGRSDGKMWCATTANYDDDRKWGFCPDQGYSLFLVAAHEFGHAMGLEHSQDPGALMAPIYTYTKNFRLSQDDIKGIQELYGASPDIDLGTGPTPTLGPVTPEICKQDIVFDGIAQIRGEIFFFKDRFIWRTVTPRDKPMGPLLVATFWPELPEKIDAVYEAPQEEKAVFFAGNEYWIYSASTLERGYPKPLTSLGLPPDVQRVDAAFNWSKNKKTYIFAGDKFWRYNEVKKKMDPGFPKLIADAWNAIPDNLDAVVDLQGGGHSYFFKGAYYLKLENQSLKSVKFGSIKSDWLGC
Method: The enzymatic reaction process was monitored by HPLC at 6, 12, 24, and 72 h.
Doxorubicin hydrochloride (DOX·HCl), trifluoroacetic acid (TFA), and anhydrous N,N-Dimethylformamide (DMF) were purchased from Aladdin (Shanghai, China).
Thioanisole (TA), 1,2-ethanedithiol (EDT), and phenol were obtained from Macklin (Shanghai, China). 4-methylmorpholine (NMM), N,N’-diisopropylcarbodiimide (DIC), and 1-hydroxybenzotriazole (HOBt) were purchased from OKA (Beijing, China). Rink amide methylbenzhydrylamine (MBHA) resin, Wang resin and all Fmoc-protected amino acids were obtained from NJPeptide (Nanjing, China). Ethanol, diethyl ether, acetonitrile (ACN), and methanol were purchased from Sinopharm Chemical Reagent Co., Ltd (Shanghai, China). Piperidine, p-nitrophenol, and succinic anhydride (Succ) were obtained from Sigma-Aldrich (Shanghai, China). Recombinant human matrix metalloproteinase-2 (MMP-2) and matrix metalloproteinase-9 (MMP-9) produced by Novoprotein Scientific Inc. (Shanghai, China) are supplied as a 0.2 μm filtered buffer mixture of 20 mM Tris-HCl, 2 mM CaCl2, 150 mM NaCl, 0.05 % Brij 35 (w/v), pH 7.5, and their specific activity is >1300 pmol/min/µg as measured under the described conditions. All commercial reagents and HPLC solvents were used with […]

MDA‐MB‐231 cells [5] = test: Transwell invasion assay (Matrigel); format: cell-based, human; settings: MDA-MB-231, Matrigel transwell, 1 µg mL^−1 in lower chamber, 24 h, versus PBS group, n = 3
Method: 1 × 10^6 MDA‐MB‐231 cells were suspended on the top chambers of the transwell with Matrigel. Cells were cultured in DMEM without FBS overnight. […] After incubation for 24 h, the cells on the upper wells were cautiously erased with a cotton swab. Cells on the lower surface were fixed with 4% PFA and stained with crystal violet. After multiple washing with PBS, the cells that passed through the membrane were recorded with a microscope (DFC 450C, Leica, Germany).

## CC[C@H](C)[C@H](NC(=O)[C@@H]1CCCN1C(=O)[C@H](CC(N)=O)NC(=O)[C@H](CC(N)=O)NC(=O)[C@H](Cc1ccc(O)cc1)NC(=O)[C@H](Cc1c[nH]cn1)NC(=O)[C@H](CCCNC(=N)N)NC(=O)CNC(=O)[C@H](CCCNC(=N)N)NC(=O)[C@@H](NC(=O)CNC(=O)[C@H](CC(C)C)NC(=O)[C@@H]1CCCN1C(=O)CCC(=O)N[C@H]1C[C@H](O[C@H]2C[C@](O)(C(=O)CO)Cc3c(O)c4c(c(O)c32)C(=O)c2c(OC)cccc2C4=O)O[C@@H](C)[C@H]1O)C(C)C)C(=O)N[C@@H](Cc1c[nH]c2ccccc12)C(=O)N[C@@H](CCCNC(=N)N)C(=O)N[C@@H](CCC(N)=O)C(=O)N[C@@H](CCCNC(=N)N)C(=O)N[C@@H](Cc1ccc(O)cc1)C(N)=O [DOX‐P18] ({Doxorubicin(3'-N)-Suc}-PLGVRGRHYNNPIWRQRY-NH2)
[1]
  Plasma clearance (CL) relative to DOX: 1/4
  Total plasma concentration (AUC) relative to DOX: four times higher
MCF‐7 cells
  IC50 (cytotoxicity), in words: higher
MDA‐MB‐231 cells [2]; MDA-MB-231, 5 µg mL^−1, 12 h, PBS group 50.8%
  Wound healing rate: 40.3%
MDA‐MB‐231 cells [2]; MDA-MB-231, 5 µg mL^−1, 24 h, PBS group defined as 100%
  Wound healing rate (coverage rate): 71.5%
MDA‐MB‐231 cells [3]
  IC50 with extended incubation time: further reduced
[4]
  Enzymatic cleavage by MMP-2: efficiently cleaved
MDA‐MB‐231 cells [5]
  Inhibition on cell invasion: 50%
